The values that follow come from patent US20140088069A1, “NOVEL ANTIBACTERIAL COMBINATION THERAPY” (priority 2011, published 2014).

Common to all, as to type: cell-based, Staphylococcus aureus
One assay relates to HA-MRSA EMRSA15. Put plainly: Checkerboard (FIC) analysis, HA-MRSA EMRSA15.
For a further assay, the system named is HA-MRSA USA200/EMRSA16. Put plainly: Checkerboard (FIC) analysis, HA-MRSA USA200/EMRSA16.
A further assay relates to CA-MRSA USA300. As to the kind of experiment: Checkerboard (FIC) analysis against CA-MRSA USA300. The following applies: for MIC: Staphylococcus aureus. How it is done:
Here a matrix of drug concentrations were tested in combinations at the concentrations shown (μg/mL). Greyscale indicates growth—darker is more growth, lighter is less growth. FIC index is a measure of synergy and is calculated as follows: FIC index=FIC (cefuroxime)+FIC (drug compound).
The combination of ticlopidine and cefuroxime was further tested as above against a variety of S. aureus strains as shown in Table 1 below.
FIC index=FIC (β-lactam)+FTC (ticlopidine). […]

The next assay concerns HA-MRSA USA100/800/NY. Put plainly: Checkerboard (FIC) analysis, HA-MRSA USA100/800/NY.
Assay [1] relates to HA-MRSA. As to the kind of experiment: Checkerboard (FIC) analysis, HA-MRSA (Table 1 r16).
The next assay relates to RN4220. Put plainly: Checkerboard (FIC) analysis, RN4220. The following applies: in the presence of ticlopidine.
A further assay has as its system CA-MRSA USA400/MW2. Put plainly: Checkerboard (FIC) analysis, CA-MRSA USA400/MW2.
Assay [2] deals with S. aureus (Newman strain). Put plainly: Checkerboard (FIC) analysis against S. aureus Newman.
For assay [3], the system named is HA-MRSA. Put plainly: Checkerboard (FIC) analysis, HA-MRSA (Table 1 r10).
The test system of assay [4] is HA-MRSA. As to the kind of experiment: Checkerboard (FIC) analysis, HA-MRSA (Table 1 r13).
Method: (§1) Here a matrix of drug concentrations were tested in combinations at the concentrations shown (μg/mL). […] FIC index is a measure of synergy and is calculated as follows: FIC index=FIC (cefuroxime)+FIC (drug compound).
In another assay the test system is SA178R1. As to the kind of experiment: Checkerboard (FIC) analysis, SA178R1.
Another assay deals with HA-MRSA USA600. Put plainly: Checkerboard (FIC) analysis, HA-MRSA USA600.
Another assay relates to HA-MRSA USA500. Put plainly: Checkerboard (FIC) analysis, HA-MRSA USA500.
Another assay has as its system MRSA. Put plainly: Analogues in combination with cefuroxime against MRSA (FIC index). The following applies: compound in combination with cefuroxime; MRSA (Table 5). On the procedure:
A series of analogues were synthesized (as shown in Table 5) in which the thienopyridine ring was removed.
These were tested in combination with cefuroxime against MRSA and results are shown below (Table 6).

Setting [5] is: Staphylococcus aureus, cefuroxime alone, read-out: MIC cefuroxime.

Each structure is given as a SMILES string. Where two headings read alike, the source gives them in different places. Some results are limits rather than exact numbers.

Method for RN4220: as §1

For `CO/N=C(\C(=O)N[C@@H]1C(=O)N2C(C(=O)O)=C(COC(N)=O)CS[C@H]12)c1ccco1` [Cefuroxime], the MIC with HA-MRSA EMRSA15 (setting [5]) is 512 µg/mL; in the assay with HA-MRSA USA200/EMRSA16 (setting [5]) it was 1020 µg/mL; in the assay with CA-MRSA USA300 (CA-MRSA USA300 (Table 1), cefuroxime alone, read-out: MIC cefuroxime) it was 512 µg/mL; in the assay on CA-MRSA USA300 (cefuroxime alone, CA-MRSA USA300 (Table 4), read-out: MIC Cefuroxime), 256 µg/mL; in the assay on HA-MRSA USA100/800/NY (setting [5]) it was 1020 µg/mL; in the assay with HA-MRSA [1] (Staphylococcus aureus, HA-MRSA (Table 1 r16, no further strain name), cefuroxime alone, read-out: MIC cefuroxime), 2050 µg/mL. Also, the MIC in the assay with CA-MRSA USA400/MW2 (setting [5]) is 256 µg/mL; in assay [2] (Staphylococcus aureus, Newman, cefuroxime alone, read-out: MIC cefuroxime) it was 2 µg/mL; in the assay on HA-MRSA [3] (Staphylococcus aureus, HA-MRSA (Table 1 r10, no further strain name), cefuroxime alone, read-out: MIC cefuroxime) it was over 2050 µg/mL; with HA-MRSA [4] (Staphylococcus aureus, HA-MRSA (Table 1 r13, no further strain name), cefuroxime alone, read-out: MIC cefuroxime), over 2050 µg/mL; in the assay with SA178R1 (setting [5]) it was 0.5 µg/mL; in the assay on HA-MRSA USA600 (setting [5]), at least 1020 µg/mL. Further, in the assay on HA-MRSA USA500 (setting [5]), the minimum inhibitory concentration (MIC) worked out at 32 µg/mL. Further, the FIC cefuroxime in the assay on HA-MRSA EMRSA15 (in the presence of ticlopidine) was found to be 0.063; with HA-MRSA USA200/EMRSA16 (in the presence of ticlopidine), 0.032; in the assay on CA-MRSA USA300 (CA-MRSA USA300 (Table 1), in the presence of ticlopidine), 0.032; in the assay on CA-MRSA USA300 (in the presence of clopidogrel, CA-MRSA USA300 (Table 4)) it was 0.063; in the assay with CA-MRSA USA300 (in the presence of prasugrel, CA-MRSA USA300 (Table 4)) it was 0.25; in the assay on CA-MRSA USA300 (in the presence of ticlopidine, CA-MRSA USA300 (Table 4)), 0.03. In addition, the FIC cefuroxime in the assay on HA-MRSA USA100/800/NY (in the presence of ticlopidine) is recorded as 0.125; with HA-MRSA [1] (HA-MRSA (Table 1 r16), in the presence of ticlopidine), 0.125; in the assay on RN4220 it was 1; in the assay with CA-MRSA USA400/MW2 (in the presence of ticlopidine), 0.063; in assay [2] (Newman, in the presence of ticlopidine), 0.125; in the assay with HA-MRSA [3] (HA-MRSA (Table 1 r10), in the presence of ticlopidine), 0.250. The FIC cefuroxime is recorded as 0.250 in the assay on HA-MRSA [4] (HA-MRSA (Table 1 r13), in the presence of ticlopidine); 1 with SA178R1 (in the presence of ticlopidine); 0.008 with HA-MRSA USA600 (in the presence of ticlopidine); 1 with HA-MRSA USA500 (in the presence of ticlopidine). Also, the FIC index result is “≦0.13” with CA-MRSA USA300 (antibiotic in combination with ticlopidine, CA-MRSA USA 300, FIC (β-lactam)+FIC (ticlopidine)) and “≦0.25” in assay [2] (antibiotic in combination with ticlopidine, S. aureus (Newman strain)).
In the case of `Clc1ccccc1C[n+]1ccc2ccccc2c1` [Compound 8, 2-(2-Chloro-benzyl)-isoquinolinium], in the assay with MRSA, the “FIC index” value was “≦2”.
On the same count and under the same terms, the value for `Clc1ccccc1CN1CCCc2ccccc21` [Compound 9, 1-(2-Chloro-benzyl)-1,2,3,4-tetrahydro-quinoline] was “≦0.187”; that for `CCN1CCN(Cc2ccccc2Cl)CC1` [Compound 10, 1-(2-Chloro-benzyl)-4-ethyl-piperazine] was “≦2”.
Still for that read-out and setting: the value for `Clc1ccccc1CN1CCCC1` [Compound 11, 1-(2-Chloro-benzyl)-pyrrolidine] was “≦2”; that for `Clc1ccccc1CN1CCCCC1` [Compound 12, 1-(2-Chloro-benzyl)-piperidine] was “≦2”; that for `Clc1ccccc1CN1CCC2CCCCC2C1` (stereo not drawn) [Compound 13, 2-(2-Chloro-benzyl)-decahydro-isoquinoline] was “≦2”.
Same read-out and setting: as for `Cc1ccccc1CN1CCc2ccccc2C1` [Compound 14, 2-(2-Methyl-benzyl)-1,2,3,4-tetrahydro-isoquinoline], the entry is “≦0.125”.
`Fc1ccccc1CN1CCc2ccccc2C1` [Compound 15, 2-(2-Fluoro-benzyl)-1,2,3,4-tetrahydro-isoquinoline]: in the assay with MRSA, the “FIC index” value is recorded as “≦0.187”.
As for `O=[N+]([O-])c1ccccc1CN1CCc2ccccc2C1` [Compound 16, 2-(2-Nitro-benzyl)-1,2,3,4-tetrahydro-isoquinoline], the “FIC index” value in the assay on MRSA was “≦0.187”.
Still for that read-out and setting: as for `FC(F)(F)c1ccccc1CN1CCc2ccccc2C1` [Compound 17, 2-(2-Trifluoromethyl-benzyl)-1,2,3,4-tetrahydro-isoquinoline], the entry is “≦0.094”.
For the compound `COC(=O)C(c1ccccc1Cl)N1CCc2ccccc2C1` (stereo not drawn) [Compound 18, (2-Chloro-phenyl)-(3,4-dihydro-1H-isoquinolin-2-yl)-acetic acid methyl ester], the “FIC index” value with MRSA was “≦0.187”.
Regarding `COC(=O)[C@H](c1ccccc1Cl)N1CCc2sccc2C1` [Compound 19, (+)-(S)-methyl 2-(2-chlorophenyl)-2-(6,7-dihydrothieno[3,2-c]pyridin-5(4H)-yl)acetate], the minimum inhibitory concentration (MIC) in the assay on CA-MRSA USA300 (thienopyridine alone, CA-MRSA USA300 (Table 4), read-out: MIC thienopyridine) was over 128 µg/mL. The FIC thienopyridine in the assay on CA-MRSA USA300 (in the presence of cefuroxime, CA-MRSA USA300 (Table 4)) came to 0.13. In addition, the “FIC index” value in the assay with CA-MRSA USA300 (thienopyridine in combination with cefuroxime, CA-MRSA USA300 (Table 4), listed as Clopidogrel) is recorded as “≦0.20”; in the assay on CA-MRSA USA300 (thienopyridine in combination with cefuroxime, CA-MRSA USA300 (Table 4), listed as clopidogrel) it was at most 0.20; in the assay with MRSA, “≦0.187”.
For the compound `O=C(O)C(c1ccccc1Cl)N1CCc2sccc2C1` (stereo not drawn) [Compound 20], the “FIC index” value in the assay on MRSA is listed as “≦0.75”.
Turning to `COC(=O)C(c1ccccc1C(F)(F)F)N1CCc2ccccc2C1` (stereo not drawn) [Compound 21], in the assay on MRSA, the “FIC index” value is reported as “≦0.125”.
As for `NC(=O)C(c1ccccc1C(F)(F)F)N1CCc2ccccc2C1` (stereo not drawn) [Compound 22], the “FIC index” value in the assay with MRSA is given as “≦1”.
For `O=C(O)C(c1ccccc1C(F)(F)F)N1CCc2ccccc2C1` (stereo not drawn) [Compound 23], the “FIC index” value in the assay with MRSA is listed as “≦2”.
